Experimental findings from ChEMBL document CHEMBL1201862, “PubChem BioAssay data set” (2004) are described below.

The target of one experiment is T1, CAAX prenyl protease 2 (Saccharomyces cerevisiae S288c, UniProt Q03530).
T1 sequence (Q03530 whole entry): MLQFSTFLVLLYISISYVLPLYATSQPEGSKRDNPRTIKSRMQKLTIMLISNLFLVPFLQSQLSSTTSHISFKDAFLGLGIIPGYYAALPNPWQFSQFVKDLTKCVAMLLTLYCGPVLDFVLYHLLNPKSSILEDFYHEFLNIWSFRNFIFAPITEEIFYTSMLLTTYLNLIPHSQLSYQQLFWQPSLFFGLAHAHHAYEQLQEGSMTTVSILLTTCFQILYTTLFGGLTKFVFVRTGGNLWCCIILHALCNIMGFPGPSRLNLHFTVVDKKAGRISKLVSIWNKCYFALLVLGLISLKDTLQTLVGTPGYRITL
The format is biochemical.

In experiment [1] the test system is Streptococcus sp. 'group A'. The experiment in a line: Streptococcus pyogenes SK(-)GAS viability under kanamycin – luminescence, BacTiterGlo, confirmation, counter-screen for streptokinase expression inhibitor project, dose response (AID 1900). Format: functional, organism-based. On the technique in general: A counterscreen serves to expose hits that act by an unwanted route or on another target.

Experiment [2] deals with Dual specificity mitogen-activated protein kinase kinase 1 (Homo sapiens, UniProt Q02750). Put plainly: Navigating the Kinome. Panel member name: MAP2K1. Format: functional.
Chain of Dual specificity mitogen-activated protein kinase kinase 1 (Q02750 whole entry): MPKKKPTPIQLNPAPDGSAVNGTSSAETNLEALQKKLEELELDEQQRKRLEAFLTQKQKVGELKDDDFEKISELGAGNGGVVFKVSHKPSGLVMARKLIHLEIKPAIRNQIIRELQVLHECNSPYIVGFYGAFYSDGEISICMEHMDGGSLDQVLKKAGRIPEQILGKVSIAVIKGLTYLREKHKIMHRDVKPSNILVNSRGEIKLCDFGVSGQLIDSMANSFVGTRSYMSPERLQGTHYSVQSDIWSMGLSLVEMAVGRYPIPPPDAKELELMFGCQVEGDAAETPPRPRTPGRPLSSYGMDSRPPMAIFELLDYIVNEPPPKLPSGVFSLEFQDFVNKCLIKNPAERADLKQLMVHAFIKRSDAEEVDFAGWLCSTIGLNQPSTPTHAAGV
In experiment [3] the target is Mitogen-activated protein kinase 14 (Homo sapiens, UniProt Q16539). The format is functional.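 Note: part of a kinome-wide panel, MAPK14 entry.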
For experiment [4], the target named is Mitogen-activated protein kinase 8 (Homo sapiens, UniProt P45983). The format is functional.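 Note: value comes from one member of a kinome-wide kinase profiling panel.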
Chain of Mitogen-activated protein kinase 8 (P45983 whole entry): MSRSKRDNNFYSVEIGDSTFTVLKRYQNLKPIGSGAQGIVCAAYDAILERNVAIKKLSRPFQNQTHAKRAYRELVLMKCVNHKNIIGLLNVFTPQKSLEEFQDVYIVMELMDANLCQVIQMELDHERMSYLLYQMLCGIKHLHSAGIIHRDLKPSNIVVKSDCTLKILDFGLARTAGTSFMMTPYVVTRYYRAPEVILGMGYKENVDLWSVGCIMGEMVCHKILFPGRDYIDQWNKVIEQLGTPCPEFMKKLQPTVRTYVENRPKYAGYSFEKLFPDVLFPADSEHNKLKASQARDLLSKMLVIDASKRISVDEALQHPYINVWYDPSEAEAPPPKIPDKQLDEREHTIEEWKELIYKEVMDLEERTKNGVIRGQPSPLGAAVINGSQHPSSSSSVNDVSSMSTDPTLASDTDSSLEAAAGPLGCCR
Experiment [5] concerns the target cAMP-dependent protein kinase catalytic subunit alpha (Homo sapiens, UniProt P17612). The format is functional.
The target in experiment [6] is Dual specificity protein kinase CLK2 (Homo sapiens, UniProt P49760). The format is functional.
Chain of Dual specificity protein kinase CLK2 (P49760 whole entry): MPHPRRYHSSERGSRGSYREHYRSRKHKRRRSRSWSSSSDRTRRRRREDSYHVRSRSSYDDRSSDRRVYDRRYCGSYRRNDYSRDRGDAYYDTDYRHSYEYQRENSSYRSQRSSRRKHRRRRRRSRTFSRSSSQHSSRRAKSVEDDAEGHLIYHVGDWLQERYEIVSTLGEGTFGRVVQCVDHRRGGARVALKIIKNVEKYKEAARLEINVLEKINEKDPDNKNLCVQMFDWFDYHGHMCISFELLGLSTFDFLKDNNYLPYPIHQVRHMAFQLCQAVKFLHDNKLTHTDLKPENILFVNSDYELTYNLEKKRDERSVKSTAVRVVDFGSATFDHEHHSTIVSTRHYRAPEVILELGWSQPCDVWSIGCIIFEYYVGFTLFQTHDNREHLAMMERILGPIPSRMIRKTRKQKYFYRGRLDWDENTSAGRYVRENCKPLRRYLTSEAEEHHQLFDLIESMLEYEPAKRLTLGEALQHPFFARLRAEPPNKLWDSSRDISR
Experiment [7] has as its target Death-associated protein kinase 3 (Homo sapiens, UniProt O43293). The format is functional.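 Note: measured as one member of a kinome-wide profiling panel.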
The target in experiment [8] is High affinity nerve growth factor receptor (Homo sapiens, UniProt P04629). Format: functional.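 Note: NTRK1 tested as one member of a kinome-wide profiling panel.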
Chain of High affinity nerve growth factor receptor (P04629 whole entry): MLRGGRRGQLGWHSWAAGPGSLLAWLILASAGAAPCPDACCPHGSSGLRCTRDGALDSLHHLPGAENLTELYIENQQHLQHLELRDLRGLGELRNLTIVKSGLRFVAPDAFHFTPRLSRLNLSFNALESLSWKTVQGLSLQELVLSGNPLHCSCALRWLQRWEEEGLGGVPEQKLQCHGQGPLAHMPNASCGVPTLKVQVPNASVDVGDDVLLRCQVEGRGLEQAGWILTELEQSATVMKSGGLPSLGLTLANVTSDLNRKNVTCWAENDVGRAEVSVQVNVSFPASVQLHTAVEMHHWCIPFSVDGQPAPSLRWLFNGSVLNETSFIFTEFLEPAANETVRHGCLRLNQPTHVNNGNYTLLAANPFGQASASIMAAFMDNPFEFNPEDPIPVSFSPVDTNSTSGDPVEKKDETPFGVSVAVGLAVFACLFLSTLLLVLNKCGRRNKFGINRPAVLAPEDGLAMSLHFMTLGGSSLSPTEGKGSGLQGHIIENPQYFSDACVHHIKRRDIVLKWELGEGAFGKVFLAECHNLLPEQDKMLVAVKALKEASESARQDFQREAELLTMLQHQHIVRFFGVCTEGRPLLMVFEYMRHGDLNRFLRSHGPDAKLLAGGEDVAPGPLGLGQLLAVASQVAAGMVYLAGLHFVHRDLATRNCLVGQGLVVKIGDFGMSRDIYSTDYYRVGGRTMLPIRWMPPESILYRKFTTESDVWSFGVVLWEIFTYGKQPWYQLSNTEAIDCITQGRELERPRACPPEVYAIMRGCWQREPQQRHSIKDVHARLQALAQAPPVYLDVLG
In experiment [9] the target is Tyrosine-protein kinase JAK3 (Homo sapiens, UniProt P52333). Format: functional.
Chain of Tyrosine-protein kinase JAK3 (P52333 whole entry): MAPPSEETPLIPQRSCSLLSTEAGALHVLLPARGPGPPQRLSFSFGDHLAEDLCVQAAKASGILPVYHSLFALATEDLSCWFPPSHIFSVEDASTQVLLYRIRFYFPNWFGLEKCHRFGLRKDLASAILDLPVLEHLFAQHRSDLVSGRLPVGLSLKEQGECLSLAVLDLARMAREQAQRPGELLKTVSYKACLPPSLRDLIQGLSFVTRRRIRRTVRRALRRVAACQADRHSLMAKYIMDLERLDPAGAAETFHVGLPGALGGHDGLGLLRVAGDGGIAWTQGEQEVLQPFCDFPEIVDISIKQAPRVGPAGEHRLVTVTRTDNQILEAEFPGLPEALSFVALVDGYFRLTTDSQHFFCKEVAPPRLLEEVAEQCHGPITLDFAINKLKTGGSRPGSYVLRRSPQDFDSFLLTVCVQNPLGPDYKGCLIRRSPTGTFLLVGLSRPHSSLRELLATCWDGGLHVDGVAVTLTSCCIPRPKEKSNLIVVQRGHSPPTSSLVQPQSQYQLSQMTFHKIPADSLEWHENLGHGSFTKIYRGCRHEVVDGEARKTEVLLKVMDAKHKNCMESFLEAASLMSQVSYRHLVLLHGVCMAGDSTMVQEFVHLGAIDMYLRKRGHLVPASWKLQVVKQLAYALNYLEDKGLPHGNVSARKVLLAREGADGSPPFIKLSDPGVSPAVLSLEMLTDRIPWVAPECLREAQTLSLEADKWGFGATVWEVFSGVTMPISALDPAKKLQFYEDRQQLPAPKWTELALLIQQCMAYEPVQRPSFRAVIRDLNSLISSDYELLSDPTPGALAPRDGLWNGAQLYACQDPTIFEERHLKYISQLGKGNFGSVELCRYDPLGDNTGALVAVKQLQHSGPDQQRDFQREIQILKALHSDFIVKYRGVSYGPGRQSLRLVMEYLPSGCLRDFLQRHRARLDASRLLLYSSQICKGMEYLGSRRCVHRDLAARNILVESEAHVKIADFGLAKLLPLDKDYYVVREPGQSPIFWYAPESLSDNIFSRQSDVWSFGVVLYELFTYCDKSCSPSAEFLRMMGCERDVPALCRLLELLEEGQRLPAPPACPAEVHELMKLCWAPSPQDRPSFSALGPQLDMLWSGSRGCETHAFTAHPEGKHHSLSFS
The target of experiment [10] is Leucine-rich repeat serine/threonine-protein kinase 2 (Homo sapiens, UniProt Q5S007). The format is functional.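 Note: value from a broad kinome-wide panel profiling study in which LRRK2 was one of the kinases tested.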
Experiment [11] concerns the target T2, Sentrin-specific protease 8 (Homo sapiens, UniProt Q96LD8).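 Note: luminescence read-out of SENP8 inhibition, dose-response confirmation following an ultra-high-throughput screen.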
T2 sequence (Q96LD8 whole entry): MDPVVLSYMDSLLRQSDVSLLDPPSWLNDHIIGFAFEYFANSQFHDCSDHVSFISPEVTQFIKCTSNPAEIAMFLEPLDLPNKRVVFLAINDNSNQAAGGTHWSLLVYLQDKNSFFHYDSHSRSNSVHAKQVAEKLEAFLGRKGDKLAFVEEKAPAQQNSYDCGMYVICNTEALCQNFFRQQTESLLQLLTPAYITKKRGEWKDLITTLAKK
Format: functional.

For experiment [12], the target named is Tyrosine-protein kinase ITK/TSK (Homo sapiens, UniProt Q08881). The format is functional.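 Note: affinity for ITK measured as one member of a broad kinase panel profiling binding across the kinome.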
In another experiment the target is LIM domain kinase 1 (Homo sapiens, UniProt P53667). Put plainly: Navigating the Kinome. Panel member name: LIMK1. The format is functional.
Chain of LIM domain kinase 1 (P53667 whole entry, the tested form may be a part): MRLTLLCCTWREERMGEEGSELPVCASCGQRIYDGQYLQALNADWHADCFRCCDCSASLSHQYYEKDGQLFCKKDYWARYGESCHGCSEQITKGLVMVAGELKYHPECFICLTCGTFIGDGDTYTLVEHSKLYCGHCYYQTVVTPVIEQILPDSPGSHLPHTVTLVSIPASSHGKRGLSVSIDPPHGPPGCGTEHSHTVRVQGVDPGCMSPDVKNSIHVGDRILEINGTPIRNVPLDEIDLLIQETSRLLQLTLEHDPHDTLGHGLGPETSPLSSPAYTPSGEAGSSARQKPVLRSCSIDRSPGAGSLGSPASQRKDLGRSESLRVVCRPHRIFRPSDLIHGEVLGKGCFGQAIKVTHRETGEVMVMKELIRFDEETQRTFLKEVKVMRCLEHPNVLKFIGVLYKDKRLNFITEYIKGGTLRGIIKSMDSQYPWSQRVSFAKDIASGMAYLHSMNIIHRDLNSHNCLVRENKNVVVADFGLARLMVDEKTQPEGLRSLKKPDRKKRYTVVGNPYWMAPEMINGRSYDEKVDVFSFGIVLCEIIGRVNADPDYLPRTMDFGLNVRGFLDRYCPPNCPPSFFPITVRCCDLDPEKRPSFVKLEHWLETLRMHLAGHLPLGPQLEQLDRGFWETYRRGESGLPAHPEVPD
For experiment [13], the target named is Serine/threonine-protein kinase PLK4 (Homo sapiens, UniProt O00444). Format: functional.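 Note: PLK4 measured as one member of a kinome-wide kinase profiling panel.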
The target in experiment [14] is Casein kinase I isoform gamma-1 (Homo sapiens, UniProt Q9HCP0). The format is functional.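 Note: measured as the CSNK1G1 member of a kinome profiling panel.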
For another experiment, the target named is Insulin receptor (Homo sapiens, UniProt P06213). Format: functional.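 Note: insulin receptor kinase tested as one member of a kinome-wide kinase panel.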
Experiment [15] addresses Phosphorylase b kinase gamma catalytic chain, liver/testis isoform (Homo sapiens, UniProt P15735). Format: functional.
Experiment [16] addresses Serine/threonine-protein kinase 3 (Homo sapiens, UniProt Q13188). Format: functional.
The target in experiment [17] is Casein kinase II subunit alpha (Homo sapiens, UniProt P68400). The format is functional.
Experiment [18] concerns the target Lymphokine-activated killer T-cell-originated protein kinase (Homo sapiens, UniProt Q96KB5). Format: functional.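 Note: value comes from a kinase panel screen in which TOPK was one of the panel members.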
The target of experiment [19] is Dual specificity tyrosine-phosphorylation-regulated kinase 4 (Homo sapiens, UniProt Q9NR20). The format is functional.
For a further experiment, the target named is Ephrin type-A receptor 2 (Homo sapiens, UniProt P29317). The format is functional.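 Note: EPHA2 tested as one member of a kinome-wide kinase panel.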
Experiment [20] deals with Serine/threonine-protein kinase PLK3 (Homo sapiens, UniProt Q9H4B4). Format: functional.
Chain of Serine/threonine-protein kinase PLK3 (Q9H4B4 whole entry): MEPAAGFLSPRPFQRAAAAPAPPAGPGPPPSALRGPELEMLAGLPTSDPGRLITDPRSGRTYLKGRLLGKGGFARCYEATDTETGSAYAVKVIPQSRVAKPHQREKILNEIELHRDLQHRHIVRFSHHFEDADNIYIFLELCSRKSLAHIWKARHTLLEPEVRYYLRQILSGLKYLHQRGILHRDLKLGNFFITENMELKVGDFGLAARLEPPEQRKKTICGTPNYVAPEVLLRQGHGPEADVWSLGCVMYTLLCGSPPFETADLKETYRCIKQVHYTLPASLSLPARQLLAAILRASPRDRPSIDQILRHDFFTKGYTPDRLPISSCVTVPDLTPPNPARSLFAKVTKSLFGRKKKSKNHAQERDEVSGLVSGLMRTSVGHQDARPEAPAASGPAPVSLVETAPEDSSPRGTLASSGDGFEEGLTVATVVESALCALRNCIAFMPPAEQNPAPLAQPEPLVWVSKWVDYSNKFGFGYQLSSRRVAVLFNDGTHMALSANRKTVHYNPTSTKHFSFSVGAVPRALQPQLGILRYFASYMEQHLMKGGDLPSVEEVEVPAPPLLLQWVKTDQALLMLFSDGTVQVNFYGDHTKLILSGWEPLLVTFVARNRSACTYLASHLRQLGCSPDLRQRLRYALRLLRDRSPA
For experiment [21], the target named is Inhibitor of nuclear factor kappa-B kinase subunit beta (Homo sapiens, UniProt O14920). Format: functional.
The nature of experiment [22]: Luminescence Cell-Based Dose Confirmation HTS to Identify Activators of 5'UTR Stem-Loop Driven Alpha-Synuclein mRNA Translation in H4 Neuroglioblastoma Cells. [Related pubchem assays: 1829 (Project Summary), 1814 (Primary HTS)]. Format: functional.
A short description of experiment [23]: HEK-293T viability loss after treatment – luminescence, T-cell screen hits, cytotoxicity control for TCR NF-kB inhibitor project, dose response (AID 489026).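 Note: cells exposed to compound about 14 hours before the viability readout.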 The format is functional, cell-based.
Experiment [24] can be described thus: viability of PTEN-deleted HCT116 cells – cell-based, HCT116 PTEN knockout, dose response (AID 1047).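 Note: HCT116 colon tumor cells with PTEN knocked out; cells exposed to compound for 60 hours before readout; potency for loss of cell viability measured by luminescence.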 Format: functional.

Activity calls are given as the source filed them.

Chain of Death-associated protein kinase 3 (O43293 whole entry): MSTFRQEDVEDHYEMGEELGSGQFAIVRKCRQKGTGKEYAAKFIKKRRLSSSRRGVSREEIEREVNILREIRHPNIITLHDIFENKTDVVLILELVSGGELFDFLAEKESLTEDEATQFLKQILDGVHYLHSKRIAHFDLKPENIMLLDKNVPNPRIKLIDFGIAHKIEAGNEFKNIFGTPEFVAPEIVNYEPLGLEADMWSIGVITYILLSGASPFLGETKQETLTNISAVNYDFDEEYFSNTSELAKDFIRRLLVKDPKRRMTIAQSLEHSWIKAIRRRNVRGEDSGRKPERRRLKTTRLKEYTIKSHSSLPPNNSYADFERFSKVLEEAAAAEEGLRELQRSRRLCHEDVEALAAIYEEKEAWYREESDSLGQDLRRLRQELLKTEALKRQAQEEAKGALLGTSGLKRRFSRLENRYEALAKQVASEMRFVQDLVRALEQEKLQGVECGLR

Consider `CCCCCCCCCCC[N+](C)(C)CC/C=C1/c2ccccc2Sc2ccc(Cl)cc21`, for which, on CAAX prenyl protease 2, the half-maximal activity concentration (AC50) (usually the midpoint of the concentration-response curve, whichever way the signal moves) was 6500 nM (active). Also, in experiment [1], the EC50 (commonly the concentration that produces a half-maximal response) was 1460 nM (active).

For `CCn1c(-c2nonc2N)nc2cncc(C(=O)N3CCC(N)C3)c21` (stereo unspecified), the Ki (commonly the equilibrium dissociation constant of an inhibitor or competing ligand from its target) in experiment [2] was > 2510 nM (inactive); in [3] it was > 3980 nM (inactive); in experiment [4], > 5010 nM (inactive); in experiment [5], 3.16 nM (active); in experiment [6], 1000 nM (active); in experiment [7], 79.4 nM (active). In addition, the Ki is > 3160 nM (inactive) in experiment [8], > 5010 nM (inactive) in experiment [9] and 631 nM (active) in experiment [10].

`Cc1cc(C)c[n+](C2=C([N-]S(=O)(=O)c3cccs3)C(=O)c3ccccc3C2=O)c1`: the concentration for a half-maximal effect (EC50) in experiment [1] is 941 nM (active). Besides, the IC50 (commonly the concentration that inhibits the measured activity by half) in experiment [11] was 33400 nM (active).

In the case of `Cc1[nH]nc2ccc(-c3cncc(OCC(N)Cc4c[nH]c5ccccc45)c3)cc12` (stereo unspecified), the Ki in [12] was > 1580 nM (inactive); on LIM domain kinase 1, 794 nM (active); in [4], 1580 nM (active); in experiment [13], > 3980 nM (inactive); in experiment [14] it was 39.8 nM (active); on Insulin receptor it was 3980 nM (active). The Ki in experiment [5] was 5.01 nM (active); in experiment [6] it was 3.16 nM (active); in experiment [15], 1000 nM (active); in [16] it was 50.1 nM (active); in experiment [7], 100 nM (active); in experiment [17], > 6310 nM (inactive). For the same molecule, the Ki is > 2510 nM (inactive) in [8]; 1000 nM (active) in experiment [18]; 251 nM (active) in experiment [19]; 316 nM (active) in experiment [9]; > 3160 nM (inactive) on Ephrin type-A receptor 2; > 7940 nM (inactive) in experiment [20]. Moreover, in [21], the Ki is > 3160 nM (inactive).

With `COC(=O)c1ccccc1NC1=C/C(=N\S(=O)(=O)c2cccs2)c2ccccc2C1=O`, the values for the concentration giving a half-maximal response (EC50) in experiment [22] and in [24] were > 120000 nM (not active) and 7960 nM (active), respectively. Besides, the IC50 in experiment [23] was 980 nM (active); in experiment [11], 41200 nM (active).
